Here are results for 15 compounds from patent publication US20240368214A1, “POSITIVE NMDA-MODULATING COMPOUNDS AND METHODS OF USE THEREOF” (SAGE THERAPEUTICS, INC., priority 2021, published 2024).

Read-outs that look alike come from different tables or passages of the source.

This assay addresses T1, recombinant human GluN1/GluN2A receptor (Homo sapiens, UniProt Q05586+Q12879).
T1 construct: expressed in transfected cells; host or cells: HEK293, tetracycline-inducible expression
Description: Whole-cell patch clamp of mammalian cells (Syncropatch 384i), NMDA modulation. Type of assay: cell-based. The conditions noted are these: HEK293 cells, human GluN1/GluN2A, glutamate 1 μM / glycine 100 μM, -80 mV, peak amplitude increase; for EC50: read-out: EC50. From the text:
Whole-Cell Patch Clamp of Mammalian Cells (Syncropatch 384i (Nanion Technologies))
Whole-cell patch clamp electrophysiology was used to investigate the effects of compounds on GluN1/GluN2A N-methyl-D-aspartate (NMDA) glutamate receptors expressed in mammalian cells.
Human embryonic kidney (HEK293) cells expressing the recombinant human GluN1/GluN2A receptor under the control of a tetracycline-inducible expression system were used. Cells were maintained in Dulbecco's Modified Eagle's Medium (DMEM) with 1% glutamine, 10% Tetracycline System Approved fetal bovine serum (FBS), and NMDA inhibitors. Cells were cultured in a humidified 5% CO2 incubator at 37° C. Cells were induced with 50 ng/ml tetracycline 18-24 hours prior to testing. A cocktail of channel blockers was added to the media to prevent cell death.
Cells were 60-80% confluent at the time of harvest. Cells were detached from the flask TrypLE Enzyme Express (Thermo Fisher) at 37° C., and then cold extracellular solution was added to the flask, followed by incubation at 4° C. and then trituration of the cells. The cell solution was then placed on a shaker on the Syncropatch platform at 10° C. with a shake speed of a minimum 200 rpm for at least 30 minutes prior to testing.
Extracellular (EC) solution (in mM) —140 NaCl, 4 KCl, 5 CaCl2, 10 HEPES, 5 Glucose, pH 7.4 with NaOH. All external solutions contained 0.2% DMSO and 0.01% Kolliphor® EL (C5135, Sigma) throughout the experiment.
Intracellular (IC) solution (in mM) —120 CsF, 10 mM EGTA, 10 NaCl, 10 HEPES, 4 NaATP, 2 MgCl2, pH 7.2 with CsOH.
First, the DMSO Master Plate was prepared, in which the DMSO stock of each test compound was serially diluted in 100% DMSO to 1000× the final assay concentration. Immediately prior to assay testing, the compounds were diluted 1:100 by transferring solutions from the DMSO Mast Plate to the Intermediate Plate pre-filled with EC solution using a Biomek FX automated liquid handling system. Compounds were then diluted further with extracellular solution into two pre-incubation plates—1) compound from the Intermediate Plate was mixed with EC solution at a 1:5 dilution to create a 2× Compound Pre-Incubation Plate which was diluted a further 1:2 when added to the Syncropatch for the initial compound pre-incubation. And 2) compound from the Intermediate plate was mixed with EC solution at a 1:10 Dilution to create the 1× Compound Pre-Incubation Plate, which was used for subsequent compound pre-incubations. Finally, a Compound+Agonist Plate was prepared by mixing compound from the 2× Compound Pre-Incubation Plate with 2× concentration of co-agonists in a 1:1 ratio.
Each experiment sequentially included cell catching, sealing, whole-cell formation, liquid application, recording and data acquisition. Whole-cell patch clamp recordings were performed using multi-hole high resistance chips on the SyncroPatch 384i (Nanion Technologies). A steady-state voltage pulse at -80 mV was applied throughout the assay and a 10 second recording window was triggered around 1 second prior to application of co-agonists. Currents were leak corrected and sampled at 5 kHz.
A fast application was used, in which 5 μl co-agonist was rapidly applied at a speed of 30 μl/s and then rapidly removed from the well. To test for modulator activity, the co-agonists glutamate (1 μM) and glycine (100 μM) were applied three times to show activation reproducibility, followed by 120 seconds pre-incubation of test compound alone. The test compound was then re-applied in the presence of co-agonists two times. This was followed by application of the agonist alone, although test compound may not be fully washed from the well prior to this step. Finally, a saturating concentration of co-agonists (glutamate 100 μM/glycine 100 μM) was applied.
The voltage protocol generation data collection and analysis were performed on PatchControll384 and DataControll384. […]
In general terms: Patch clamp records ionic current or voltage across a cell membrane.

T1 sequence (Q12879 23-1464, other chains not shown): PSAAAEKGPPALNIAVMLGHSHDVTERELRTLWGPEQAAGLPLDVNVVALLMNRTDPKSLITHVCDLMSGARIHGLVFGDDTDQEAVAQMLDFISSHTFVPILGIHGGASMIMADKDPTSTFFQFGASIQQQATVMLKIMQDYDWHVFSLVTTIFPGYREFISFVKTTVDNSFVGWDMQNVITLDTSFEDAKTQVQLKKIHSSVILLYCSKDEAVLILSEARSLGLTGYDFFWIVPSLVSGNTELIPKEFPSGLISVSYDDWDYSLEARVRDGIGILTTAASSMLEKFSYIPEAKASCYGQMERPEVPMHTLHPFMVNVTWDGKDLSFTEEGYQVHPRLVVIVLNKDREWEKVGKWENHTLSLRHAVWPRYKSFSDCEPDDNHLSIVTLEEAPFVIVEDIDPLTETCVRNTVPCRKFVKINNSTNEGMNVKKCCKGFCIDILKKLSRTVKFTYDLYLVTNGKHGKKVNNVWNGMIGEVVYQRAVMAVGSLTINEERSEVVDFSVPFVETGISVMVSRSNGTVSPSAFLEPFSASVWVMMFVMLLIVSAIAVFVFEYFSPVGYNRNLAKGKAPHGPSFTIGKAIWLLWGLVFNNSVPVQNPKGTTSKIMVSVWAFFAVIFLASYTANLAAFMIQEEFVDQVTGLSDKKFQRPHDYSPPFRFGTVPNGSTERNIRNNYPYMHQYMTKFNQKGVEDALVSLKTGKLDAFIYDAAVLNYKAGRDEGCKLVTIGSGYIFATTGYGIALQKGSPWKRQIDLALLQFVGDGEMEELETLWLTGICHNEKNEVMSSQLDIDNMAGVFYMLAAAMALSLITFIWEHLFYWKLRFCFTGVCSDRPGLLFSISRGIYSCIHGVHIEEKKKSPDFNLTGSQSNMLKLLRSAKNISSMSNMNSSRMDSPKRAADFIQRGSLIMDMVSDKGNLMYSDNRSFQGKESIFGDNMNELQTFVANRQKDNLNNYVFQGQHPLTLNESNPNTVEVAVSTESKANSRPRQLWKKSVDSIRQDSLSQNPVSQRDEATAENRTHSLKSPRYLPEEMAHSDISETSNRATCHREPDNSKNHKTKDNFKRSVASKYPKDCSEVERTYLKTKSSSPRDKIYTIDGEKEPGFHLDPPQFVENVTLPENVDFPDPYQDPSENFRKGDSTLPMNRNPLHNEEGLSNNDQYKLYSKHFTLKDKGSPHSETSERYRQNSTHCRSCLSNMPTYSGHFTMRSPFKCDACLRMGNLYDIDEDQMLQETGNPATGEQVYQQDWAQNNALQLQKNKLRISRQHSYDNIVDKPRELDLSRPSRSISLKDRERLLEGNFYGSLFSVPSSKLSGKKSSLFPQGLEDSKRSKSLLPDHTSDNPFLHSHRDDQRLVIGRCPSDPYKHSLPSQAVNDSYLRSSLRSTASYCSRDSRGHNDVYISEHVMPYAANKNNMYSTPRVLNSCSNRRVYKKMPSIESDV

In the case of `CC[C@]1(O)CC[C@@]2(C)[C@@H](CC[C@@H]3[C@@H]2CC[C@]2(C)[C@@H](C(CC[C@@H](O)C(C)C)C(F)(F)F)CC[C@@H]32)C1` (stereo in doubt) [Compound A-19, (3S,5S,8R,9S,10S,13S,14S,17R)-3-ethyl-10,13-dimethyl-17-((2R,5R)-1,1,1-trifluoro-5-hydroxy-6-methylheptan-2-yl)hexadecahydro-1H-cyclopenta[a]phenanthren-3-ol], the EC50 (Table A-2) is > 1000 nM.
With `CCC1(O)CCC[C@@]2(C)[C@@H](CC[C@@H]3[C@@H]2CC[C@]2(C)[C@@H]([C@H](C)CC[C@](C)(O)C(F)(F)F)CC[C@@H]32)C1` (stereo in doubt) [Compound D-8, (1R,3aS,3bR,5aS,7S,10aS,10bS,12aR)-7-ethyl-10a,12a-dimethyl-1-((2R,5S)-6,6,6-trifluoro-5-hydroxy-5-methylhexan-2-yl)octadecahydrocyclohepta[a]cyclopenta[f]naphthalen-7-ol], for the setting “Table D-2”, the Emax lay in the range of 100 to 200% and the 50% effective concentration (EC50) is > 1000 nM.
For `CC[C@H](CCCC(C)(C)O)[C@H]1CC[C@H]2[C@@H]3CC[C@H]4C[C@](O)(CC)CC[C@]4(C)[C@H]3CC[C@]12C` [Compound A-1, (3S,5S,8R,9S,10S,13R,14S,17R)-3-ethyl-17-((R)-7-hydroxy-7-methyloctan-3-yl)-10,13-dimethylhexadecahydro-1H-cyclopenta[a]phenanthren-3-ol], where the note is “Table A-2”, the maximal effect (Emax) lay in the range of 100 to 200% and the EC50 was in the range of 1 to 100 nM.
On to `CC[C@H](CC[C@@](C)(O)C(F)(F)F)[C@H]1CC[C@H]2[C@@H]3CC[C@H]4C[C@](O)(CC)CC[C@]4(C)[C@H]3CC[C@]12C` [Compound A-2, (3S,5S,8R,9S,10S,13R,14S,17R)-3-ethyl-10,13-dimethyl-17-((3R,6R)-7,7,7-trifluoro-6-hydroxy-6-methylheptan-3-yl)hexadecahydro-1H-cyclopenta[a]phenanthren-3-ol], for which, under “Table A-2”, the Emax lay within 100 to 200% and the half-maximal effective concentration (EC50) fell in the range of 500 to 1000 nM.
Turning to `CC[C@H](CC[C@](C)(O)C(F)(F)F)[C@H]1CC[C@H]2[C@@H]3CC[C@H]4C[C@](O)(CC)CC[C@]4(C)[C@H]3CC[C@]12C` [Compound A-3, (3S,5S,8R,9S,10S,13R,14S,17R)-3-ethyl-10,13-dimethyl-17-((3R,6S)-7,7,7-trifluoro-6-hydroxy-6-methylheptan-3-yl)hexadecahydro-1H-cyclopenta[a]phenanthren-3-ol], under “Table A-2”, the Emax is > 200% and the EC50 fell in the range of 1 to 100 nM.
For the compound `CC[C@]1(O)CC[C@@]2(C)[C@@H](CC[C@@H]3[C@@H]2CC[C@]2(C)[C@@H]([C@H](F)CC[C@H](O)C(C)C)CC[C@@H]32)C1` [Compound A-4, (3S,5S,8R,9S,10S,13S,14S,17S)-3-ethyl-17-((1R,4S)-1-fluoro-4-hydroxy-5-methylhexyl)-10,13-dimethylhexadecahydro-1H-cyclopenta[a]phenanthren-3-ol], under “Table A-2”, the Emax is > 200% and the half-maximal effective concentration (EC50) was 1 to 100 nM.
On the same counts, the results for `CC[C@]1(O)CC[C@@]2(C)[C@@H](CC[C@@H]3[C@@H]2CC[C@]2(C)[C@@H]([C@H](F)CC[C@@H](O)C(C)C)CC[C@@H]32)C1` [Compound A-5, (3S,5S,8R,9S,10S,13S,14S,17S)-3-ethyl-17-((1R,4R)-1-fluoro-4-hydroxy-5-methylhexyl)-10,13-dimethylhexadecahydro-1H-cyclopenta[a]phenanthren-3-ol] are > 200% and 1 to 100 nM.
`CC[C@]1(O)CC[C@@]2(C)[C@@H](CC[C@@H]3[C@@H]2CC[C@]2(C)[C@@H]([C@@H](CC[C@@H](O)C(C)C)OC)CC[C@@H]32)C1` [Compound A-6, (3S,5S,8R,9S,10S,13S,14S,17S)-3-ethyl-17-((1R,4R)-4-hydroxy-1-methoxy-5-methylhexyl)-10,13-dimethylhexadecahydro-1H-cyclopenta[a]phenanthren-3-ol]: for the setting “Table A-2”, the Emax is > 200% and the EC50 fell in the range of 100 to 500 nM.
For the compound `CC[C@]1(O)CC[C@@]2(C)[C@@H](CC[C@@H]3[C@@H]2CC[C@]2(C)[C@@H]([C@@H](CC[C@H](O)C(C)C)OC)CC[C@@H]32)C1` [Compound A-7, (3S,5S,8R,9S,10S,13S,14S,17S)-3-ethyl-17-((1R,4S)-4-hydroxy-1-methoxy-5-methylhexyl)-10,13-dimethylhexadecahydro-1H-cyclopenta[a]phenanthren-3-ol], for the setting “Table A-2”, the maximal response (Emax) was > 200% and the concentration for a half-maximal effect (EC50) is 100 to 500 nM.
In the case of `CC[C@]1(O)CC[C@@]2(C)[C@@H](CC[C@@H]3[C@@H]2CC[C@]2(C)[C@@H](C(C#N)CCCC(C)(C)O)CC[C@@H]32)C1` (stereo partly drawn) [Compound A-8, 2-((3S,5S,8R,9S,10S,13S,14S,17R)-3-ethyl-3-hydroxy-10,13-dimethylhexadecahydro-1H-cyclopenta[a]phenanthren-17-yl)-6-hydroxy-6-methylheptanenitrile], under “Table A-2”, the Emax lay in the range of 100 to 200% and the concentration giving a half-maximal response (EC50) fell in the range of 1 to 100 nM.
For the compound `CC[C@]1(O)CC[C@@]2(C)[C@@H](CC[C@@H]3[C@@H]2CC[C@]2(C)[C@@H]([C@H](C#N)CCCC(C)(C)O)CC[C@@H]32)C1` [Compound A-9, (R)-2-((3S,5S,8R,9S,10S,13S,14S,17R)-3-ethyl-3-hydroxy-10,13-dimethylhexadecahydro-1H-cyclopenta[a]phenanthren-17-yl)-6-hydroxy-6-methylheptanenitrile], for the setting “Table A-2”, the Emax was > 200% and the concentration for a half-maximal effect (EC50) lay in the range of 1 to 100 nM.
The like results for `CC[C@]1(O)CC[C@@]2(C)[C@@H](CC[C@@H]3[C@@H]2CC[C@]2(C)[C@@H]([C@@H](C#N)CCCC(C)(C)O)CC[C@@H]32)C1` [Compound A-9a] were, in that order, < 100% and 1 to 100 nM.
As for `CC[C@]1(O)CC[C@@]2(C)[C@@H](CC[C@@H]3[C@@H]2CC[C@]2(C)[C@@H]([C@@H](CCCC(C)(C)O)OC)CC[C@@H]32)C1` [Compound A-10, (3S,5S,8R,9S,10S,13S,14S,17S)-3-ethyl-17-((R)-5-hydroxy-1-methoxy-5-methylhexyl)-10,13-dimethylhexadecahydro-1H-cyclopenta[a]phenanthren-3-ol], for the setting “Table A-2”, the Emax lay within 100 to 200% and the 50% effective concentration (EC50) lay within 100 to 500 nM.
Regarding `CCO[C@H](CC[C@H](O)C(C)C)[C@H]1CC[C@H]2[C@@H]3CC[C@H]4C[C@](O)(CC)CC[C@]4(C)[C@H]3CC[C@]12C` [Compound A-11, (3S,5S,8R,9S,10S,13S,14S,17S)-17-((1R,4S)-1-ethoxy-4-hydroxy-5-methylhexyl)-3-ethyl-10,13-dimethylhexadecahydro-1H-cyclopenta[a]phenanthren-3-ol], the EC50 (Table A-2) is > 1000 nM.
`CCO[C@H](CC[C@H](O)C(C)C)[C@H]1CC[C@H]2[C@@H]3CC[C@@H]4C[C@](O)(CC)CC[C@]4(C)[C@H]3CC[C@]12C` [Compound A-11a, (3S,5R,8R,9S,10S,13S,14S,17S)-17-((1R,4S)-1-ethoxy-4-hydroxy-5-methylhexyl)-3-ethyl-10,13-dimethylhexadecahydro-1H-cyclopenta[a]phenanthren-3-ol]: where the note is “Table A-2”, the Emax was < 100% and the EC50 was > 1000 nM.

Usually EC50 stands for the concentration giving half of the maximal effect. What is called Emax is the size of the effect at its maximum, as opposed to the concentration needed.
